We go through 1 substance from patent US8859291B2, “Methods for target molecule detection using siderophores and related compositions” (PerkinElmer LAS, Inc., priority 2004, dated 2014).

This assay deals with deferoxamine-gallium (III) cation capture agent. Briefly: AlphaScreen proximity assay: binding of biotinylated target molecules to deferoxamine-gallium (III) cation acceptor beads. The procedure:
To prepare desferrioxamine complexed with gallium (III) cation and desferrioxamine complexed with iron (III), as a capture agents attached to a plastic bead support, desferrioxamine was first attached to plastic beads as follows: 5 mg of deferoxamine, 250 ul of raw AlphaScreen™ acceptor beads (at 20 mg/ml), 6 ul of TWEEN™ 20 detergent (at 10% in water), 50 ul of sodium cyanoborohydride (at 25 mg/ml in water) and 695 ul of MES 0.1 M, pH 6.0 were mixed. The mixture was incubated overnight at 37° C. in an agitating water bath. The following morning, 50 ul of carboxymethoxylamine (at 65 mg/ml in water, pH 5) was added, and the mixture was incubated for 1 hour at 37° C. The beads were then centrifuged (30 minutes at 13,000 rpm), washed twice with TRIS buffer (0.1 M, pH 8.0).
To form a complex of desferrioxamine with transition metal cations, the beads were resuspended in HEPES buffer (25 mM, pH 7.4) containing 100 mM gallium (III) or iron (III) chloride. After 1 hour of incubation, the beads were centrifuged, washed twice with HEPES buffer (25 mM pH 7.4) and resuspended in HEPES buffer. Sonication optionally can be used to eliminate aggregates of beads. […]
The ability of deferoxamine-gallium (III) cation capture agents to bind to target molecules was confirmed using AlphaScreen™ assays. […] Alternatively, competition or cleavage assays can be read as signal reduction. […]

With “biotin-phosphoinositide-3,4,5-trisphosphate [biotin-PIP3]”, the concentration at which maximal signal was not yet reached was over 1 µM. Further, under “HEPES buffer, streptavidin donor beads, triplicate”, the “concentration at which detection starts” value is reported as “around 300 pM”.
